The assay has as its system SARS-CoV pseudovirus entry in ACE2 overexpressing A549 human lung alveolar basal epithelium cells. Format: cell-based.

As for rhAAT, the SARS-CoV pseudovirus entry entry is given as “inhibits viral entry of several viruses”.

(Values after patent US20230302104A1, “TREATMENT AND/OR PREVENTION OF A DISEASE OR A SYNDROME RELATED TO A VIRUS INFECTION” (priority 2020, published 2023).)
